Data from US7985745B2, “Method for pain treatment” (Abbott Laboratories, priority 2006, dated 2011).

Columns and labels:
histamine H4 receptor [1] = biological target: T1, histamine H4 receptor (Homo sapiens, UniProt Q9H3N8); test: FLIPR Ca2+ assay in HEK-293 cells stably expressing histamine H4 receptor and Gαqi5; type: cell-based; details: Kb for antagonists and inverse agonists, EC50 for partial agonists; block of histamine-induced Ca2+ increase
T1 construct: expressed in transfected cells; host or cells: HEK-293 cells, transient transfection with pCINeo vector; membranes
From the text: Histamine H4 receptors from mammalian species have been cloned. Methods to clone, express, and assess the potency and functional activity of such cloned genes are well known to those skilled in the art of molecular biology. […] Before testing, cells are loaded with a Ca^+2 sensitive fluorescent dye, in this case Fluo-4. In the case of partial agonist or agonist ligands, addition of compound to the cells leads to the increase in intracellular Ca^+2 which is detected by FLIPR (Fluorescence Imaging Plate Reader; Molecular Devices, Sunnyvale, Calif.) technology. […] The fluorescence intensities measured before addition of the test compound are subtracted from the fluorescence intensities at later time points. Peak response values determined at each concentration of ligand are expressed as a percentage of the response obtained with the full agonist histamine. Concentration versus response data are analyzed to obtain compound potency as Kb values for antagonists and inverse agonists and as EC50 values for partial agonists.

neuropathic pain = test: Bennett model: chronic constriction injury of sciatic nerve, mechanical stimulus; type: in vivo, rat
From the text: To prepare animals for the model, an incision of about 1.5 cm was made about 0.5 cm below the rat pelvis. The biceps femoris and the gluteous superficialis (right side) were separated and the sciatic nerve exposed, isolated, and four loose ligatures (5-0 chromic [NT]) with 1 mm spacing were placed around it. The rats were allowed to recover and then placed in a cage with soft bedding for 10 days before assessment of pain response to mechanical stimulus by the method described above for the Chung model.

histamine H4 receptor [2] = biological target: T1, histamine H4 receptor; test: 3H-histamine competition binding assay, membranes of transfected HEK-293 cells; details: displacement of [3H]-histamine, 25° C., 1 h; read-out: Potency in Competition Binding Assay
Experimental: In this assay, membranes were prepared from HEK-293 cells transiently transfected with the pCINeo expression vector harboring the histamine H4 receptor by homogenization of the cells on ice in TE buffer (50 mM Tris-HCl buffer, pH 7.4, containing 5 mM EDTA), 1 mM benzamidine, 2 μg/ml aprotinin, 1 μg/ml leupeptin, and 1 μg/ml pepstatin. The homogenate was centrifuged at 40,000 g for 20 minutes at 4° C. This step was repeated, and the resulting pellet was resuspended in TE buffer. Aliquots were frozen at −70° C. until needed. On the day of assay, membranes were thawed and diluted with TE buffer. Competition radioligand binding assays were performed with increasing concentrations of test compound in the presence of [^3H]-histamine incubated at 25° C. for 1 h in a total volume of 0.5 ml of 50 mM Tris, 5 mM EDTA, pH 7.4. All binding reactions were terminated by filtration under vacuum onto polyethylenimine (0.3%) presoaked Unifilters (PerkinElmer Life Sciences) or Whatman GF/B filters (Whatman, Clifton, N.J.) followed by three brief washes with 4 ml of ice-cold TE buffer. Bound radiolabel was determined by liquid scintillation counting. For all of the radioligand competition binding assays, IC50 values and Hill slopes were determined by Hill transformation of the data and Ki values were determined by the Cheng-Prusoff equation.

thermal hyperalgesia = test: Complete Freund's adjuvant-induced thermal hyperalgesia; type: in vivo, rat; details: 30 minutes before testing, 48 hours after CFA, thermal stimulus
Experimental: To assess the effectiveness of representative compounds of the invention against hyperalgesia, animals were tested in an acute model of adjuvant-induced thermal hyperalgesia (see for example, Honore, et al. Behavioural Brain Research 167 (2006) 355-364; Carroll, et al. US Patent application US 2006/0025614A 1). To prepare animals for the model, a solution of Complete Freund's adjuvant (150 microliters of a 50% aqueous solution, Sigma Chemical Company, St. Louis, Mo.) was injected into the plantar surface of test paw of the animal (rat). Rats so injected develop a hyperalgesia to thermal stimulation which is assessed 48 hours after injection of the Complete Freund's adjuvant using a commercially available paw thermal stimulator (UARDG, Dept. of Anesthesiology, Univ. California at San Diego, La Jolla, Calif.). For testing, rats were placed individually in a so-called ‘hot box’ (i.e. Plexiglass cubicles mounted on a glass surface) maintained at 30° C., and allowed a 30 minute habituation period. A thermal stimulus, in the form of radiant heat emitted from a focused projection bulb, was then applied to the plantar surface of each hind paw. The stimulus current was maintained (e.g. at 4.5 Amp) and the time of exposure set to limit the extent of possible tissue damage (e.g. maximum of 20 seconds exposure to thermal heating from the projection bulb). The time (in seconds) for the withdrawal of the paw that was injected with the Complete Freund's adjuvant (CFA) and subjected to the thermal stimulus was recorded, and this was compared to the time (in seconds) for withdrawal of the uninjected paw subjected to the same thermal stimulus. […] To test the effect of a compound on the hyperalgesia, the test compound is dissolved in a vehicle (e.g. water or saline) and administered by i.p. (intraperitoneal) injection 30 minutes before the testing of the animal's response to the thermal stimulus to the paws. The antihyperalgesic activity of the compound in blocking the pain is shown by an increase in the time to withdraw the CFA-injected paw subjected to thermal stimulus. Experiments are done with single-dose and escalating-dosages of the test compound, and dose response curves constructed to determine ED50 values.

Potency in the FLIPR assay (histamine H4 receptor [1])	Ki (histamine H4 receptor [2])	SMILES	MPE (neuropathic pain; 100 micromole/kg i.p.)	MPE (neuropathic pain; 300 micromole/kg i.p.)	MPE (thermal hyperalgesia; 30 micromole/kg i.p.)	MPE (thermal hyperalgesia; 100 micromole/kg i.p.)	MPE (neuropathic pain; 250 micromole/kg i.p.)	MPE (neuropathic pain; 500 micromole/kg i.p.)	MPE (thermal hyperalgesia; 300 micromole/kg i.p.)
58 nM	35 nM	CN1CCN(c2cc(-c3ccc(C#N)cc3)nc(N)n2)CC1.O=C(O)/C=C\C(=O)O [Example 1, 4-(2-Amino-6-(4-methylpiperazin-1-yl)pyrimidin-4-yl)benzonitrile, maleate]	18%	63%	62%	88%	–	–	–
–	–	CN1CCN(C(=O)c2cc3cc(Cl)ccc3[nH]2)CC1 [Example 3, reference compound]	–	–	27%	–	32%	73%	81%
9 nM	11 nM	CNC1CN(c2nc(N)nc3c2CCCc2ccccc2-3)C1 [Example 6, 4-(3-Methylamino-azetidin-1-yl)-6,7-dihydro-5H-benzo[6,7]cyclohepta[1,2-d]pyrimidin-2-ylamine]	–	–	–	–	–	–	–
